The values that follow are results of earlier work, collected in paper PMC11949389 (Polish Journal of Microbiology, 2025).

One may read the MIC as the lowest concentration found to suppress growth.

Molecules are shown by their SMILES. Values after ≈ are worked out from the molar mass of the structure shown. Read-outs that look alike come from different tables or passages of the source.

The test system of one data set is Pseudomonas sp. Conditions: ref Caballero Gómez et al. 2022.
In data set [1] the test system is Acinetobacter baumannii. The note with it: ref Choudhary et al. 2022.
The test system of a further data set is Staphylococcus sp. The note with it: ref Caballero Gómez et al. 2022.
For another data set, the system named is bovine mastitis. The note with it: versus antibiotic treatment, ref Guo et al. 2023.
Another data set concerns Enterococcus sp. Conditions: ref Caballero Gómez et al. 2022.
The next data set has as its system Klebsiella pneumoniae. Conditions: ref Sayout et al. 2020, de Souza et al. 2021, Kwiatkowski et al. 2022.
Data set [2] has as its system Vibrio anguillarum, and Vibrio harveyi. The note with it: ref Rossi et al. (2021).
In data set [3] the test system is Mupirocin-resistant Staphylococcus aureus. Conditions: ref Kwiatkowski et al. 2019.
Data set [4] deals with Candida albicans.
Another data set deals with Candida tropicalis. The note with it: with voriconazole, C. tropicalis isolates; ref Sharifzadeh and Shokri (2021).
For the next data set, the system named is Candida glabrata. Conditions: Candida glabrata; ref Sharifzadeh et al. 2019; Iraji et al. 2020; Biernasiuk et al. 2022; Stringaro et al. 2022.
Data set [5] relates to Singapore grouper iridovirus (SGIV). Conditions: ref Wang et al. (2024).
In data set [6] the test system is Candida auris. Conditions: ref Shaban et al. 2020.
Data set [7] has as its system Acinetobacter baumannii.
Data set [8] relates to Candida auris. The note with it: Candida auris; ref Shaban et al. 2020.
The subject of data set [9] is carbapenem-resistant Klebsiella pneumoniae (CRKP) strains. Conditions: CRKP; ref Qian et al. 2020.
A further data set relates to Vibrio anguillarum. The note with it: ref Rossi et al. 2021.
For data set [10], the system named is Methicillin-resistant Staphylococcus aureus. The note with it: for Mechanisms of action: Methicillin-resistant Staphylococcus aureus.
The subject of a further data set is Streptococcus mutans. The note with it: ref Jafri et al. (2019).
For data set [11], the system named is Mupirocin-susceptible Staphylococcus aureus. The note with it: ref Kwiatkowski et al. 2019.
Data set [12] deals with Carbapenem-resistant Klebsiella pneumoniae (CRKP). Conditions: ref Qian et al. 2020.
The test system of data set [13] is Candida albicans. Conditions: ref Shaban et al. 2020.
Another data set concerns Vibrio harveyi. The note with it: ref Rossi et al. 2021.
Data set [14] has as its system Staphylococcus aureus. Conditions: for MIC/Sensitivity: Staphylococcus aureus, ref Kwiatkowski et al. 2020, Sayout et al. 2020, Sousa Silveira et al. 2020, Macêdo et al. 2022, Noumi et al. 2023, Sharma et al. 2023.
Data set [15] relates to Staphylococcus aureus.
Another data set deals with Enterobacter cloacae. Conditions: ref Sayout et al. 2020.
Data set [16] deals with Methicillin-susceptible Staphylococcus aureus. The note with it: ref Owen et al. 2019.
Data set [17] deals with Methicillin-resistant Staphylococcus aureus. Conditions: Methicillin-resistant Staphylococcus aureus; ref Owen et al. 2019.
The subject of data set [18] is Campylobacter jejuni.
A further data set relates to influenza H1N1. Conditions: 20 μg/ml; ref Panagiotopoulos et al. (2021).
The test system of data set [19] is Campylobacter jejuni. This is another data set of the same source.
The mark [20] stands for this setting: Campylobacter jejuni, ref Šimunović et al. 2020.

`CC(C)=CCC/C(C)=C/CO` [Geraniol]: the MIC/Sensitivity with Pseudomonas sp. was 0.1 to 0.4 mg/mL; in the data set with Staphylococcus sp., 0.1 to 0.4 mg/mL; in the data set on Enterococcus sp., 0.1 to 0.35 mg/mL; in the data set with Klebsiella pneumoniae it was 1.74 mg/mL (≈ 11.3 mM). Also, the Mechanisms of action result with Acinetobacter baumannii [1] was “• Reduction in exopolysaccharide production • Disruption and inhibition of biofilm • Downregulation of csuE gene”. For the same molecule, in the data set on bovine mastitis, the therapeutic effect result is on record as “equivalent therapeutic effects”. For the same molecule, the MIC in data set [2] is 940 to 7500 µM.
For the molecule `C=CCc1ccc(O)c(OC)c1` [Eugenol], the MIC/Sensitivity was 0.3 to 0.4 mg/mL in the data set with Pseudomonas sp.; 8.34 mg/mL (≈ 50.8 mM) in data set [3]; 0.5 to 2 mg/mL in the data set with Candida albicans [4] (Candida albicans, ref Sharifzadeh et al. 2019, Iraji et al. 2020, Shaban et al. 2020, Stringaro et al. 2022, Biernasiuk et al. 2022); 0.3 to 0.4 mg/mL with Staphylococcus sp.; 1 to 2 mg/mL with Candida glabrata; 0.2 to 0.45 mg/mL in the data set on Enterococcus sp.. The MIC/Sensitivity is 0.625 mg/mL (≈ 3.81 mM) with Candida auris [8]; 308.696 mg/mL (≈ 1880 mM) with Vibrio anguillarum; 2.08 mg/mL (≈ 12.7 mM) in data set [11]; 308.696 mg/mL (≈ 1880 mM) with Vibrio harveyi; 0.25 to 1 mg/mL in the data set on Candida krusei (Candida krusei, ref Sharifzadeh et al. 2019, Iraji et al. 2020, Biernasiuk et al. 2022, Stringaro et al. 2022); 0.024 to 11.1 mg/mL in the data set with Staphylococcus aureus [14]. Further, the “planktonic MIC” value in the data set with Candida albicans [4] (C. albicans, ref Jafri et al. (2019)) was 0.2 mg/mL; in the data set with Streptococcus mutans, 0.2 mg/mL. In addition, the FICI with Candida tropicalis was 0.25–0.88; with Acinetobacter baumannii [7] (combined with ciprofloxacin, ref Aleksic Sabo et al. (2021)), 0.25–0.32; in the data set on Candida krusei (with voriconazole, C. krusei isolates, ref Sharifzadeh and Shokri (2021)) it was 0.19–0.63. Also, the Mechanisms of action result is “• Reduction in exopolysaccharide production • Disruption and inhibition of biofilm • Downregulation of csuE gene” in the data set with Acinetobacter baumannii [1]; “• Reduced proteinase production and host cell adherence” in the data set on Candida auris [6]; “• Downregulation of luxS gene • Inhibition of biofilm production • Enhancement of secondary metabolites • Upregulation of argC protein” in data set [10] (ref Buru et al. 2022); “• Downregulation of biofilm-related genes (sarA, icaA, icaD) • Reduction of polysaccharide accumulation and cell adhesion” in data set [10] (ref El-Far et al. 2021); “• Disruption of cell membrane • Reduction in intracellular pH and ATP levels • Cell membrane hyperpolarization • Downregulation of biofilm-related genes (pgaA, luxS, wbbM, wzm) • Upregulation of mrkA gene” in data set [12]; “• Reduced proteinase production” with Candida albicans [13]. Moreover, the Mechanisms of action entry in the data set on Staphylococcus aureus [15] (ref Macêdo et al. 2022) was “• Inhibition of efflux pump”; with Staphylococcus aureus [15] (ref Mastoor et al. 2022), “• Gene expression reduction linked to intracellular adhesion”; in the data set with Staphylococcus aureus [15] (ref Muniz et al. 2021) it was “• Inhibition of norA efflux pump”. Also, the “optimal concentration for inhibiting infection” value in [5] is 100 µM. Besides, the MIC in data set [9] was 0.2 mg/mL (≈ 1.22 mM); in [2], 940 to 7500 µM; with Staphylococcus aureus [14] (S. aureus, ref Sharma et al. (2023)), 500–1,000 μg/ml. The biofilm eradication result in [10] (MIC or 2 × MIC concentrations, established MRSA biofilms, ref El-Far et al. (2021)) is given as “effectively eradicated established MRSA biofilms”.
Take `Cc1ccc(C(C)C)cc1` [p-Cymene]: the MIC/Sensitivity in the data set with Enterobacter cloacae was 0.0041 mg/mL (≈ 0.0305 mM); in data set [16], 1075.1022 mg/mL (≈ 8010 mM); in data set [17], 2150.2044 mg/mL (≈ 16000 mM); with Acinetobacter baumannii [7] (ref Sayout et al. 2020), 0.00513 mg/mL (≈ 0.0382 mM); in the data set on Campylobacter jejuni [19] (setting [20]) it was 1 mg/mL (≈ 7.45 mM); with Klebsiella pneumoniae it was 0.01025 mg/mL (≈ 0.0764 mM). In addition, the MIC/Sensitivity in the data set on Staphylococcus aureus [14] was 0.01025 mg/mL (≈ 0.0764 mM). Besides, the efflux pump inhibition result in the data set with Campylobacter jejuni [18] (C. jejuni, ref Šimunović et al. (2020)) is listed as “inhibited efflux pumps”. The Mechanisms of action result with Campylobacter jejuni [18] (setting [20]) is recorded as “• Inhibition of efflux pump”. In the data set on influenza H1N1, the “effect on influenza H1N1” value was “reduced virus protein expression and impaired nuclear translocation”. Besides, the MIC in the data set with Campylobacter jejuni [19] (ref Šimunović et al. (2020)) is given as 1,000 μg/ml.
